Experimental data published in patent US20210024483A1, “HETEROCYLCOALKENYL DERIVATIVES USEFUL AS AGONISTS OF THE GPR120 AND / OR GPR40” (Janssen Pharmaceutica NV, priority 2018, published 2021).

System: DIO mice (C57Bl6 on high fat diet)
Experiment: GPR120 DIO Mice OGTT Screening
Type: in vivo, mouse
Settings: 3 mg/kg, glucose AUC −30 to 90 min, change from vehicle
Procedure: GPR120 DIO Mice OGTT Screening
18-22 week old, C57Bl6 mice on a high fat diet (60% HFD) for 12-16 weeks (average body weight ˜37-41 g) were fasted for 6 hr, with removal of food occurring at 7 am on the morning of the study. The animals were sorted into treatment groups the day before the study by body weight. Animals outside the bounds of ˜30-50 g were left out of the study. The animals had been handled and shammed a total of 5-8 days (1-3 days immediately prior to the study). Glucose (in 1 mL syringes) was drawn up the morning of the study. Test compounds were kept spinning and were only drawn into 1 ml syringes prior to study commencement. […]
Animals were moved into the testing room at ˜9-11 am, to yield them time to acclimate. […] All groups were dosed 30 minutes prior to glucose administration at a dose volume of 10 ml/kg (the dose volume was calculated separately for each individual animal). […]
Thirty minutes after the first dose (with test compound) animals were bled again for a second baseline, or T=0, and immediately dosed with glucose (20% solution; TEKNOVA, 250 ml sterile bottle w/catalogue number G0525) via a PO injection. The exact dose volume for glucose was also calculated separately for each individual animal.
Blood glucose was measured at 15, 30, 45, 60, and 90 minutes post-glucose administration via the snipped tail. […]

Cc1c(CCC(=O)O)ccc(OCC2=C(c3ccc(Cl)cc3)COCC2)c1C [ID No. 745, 3-[4-[[5-(4-chlorophenyl)-3,6-dihydro-2H-pyran-4-yl]methoxy]-2,3-dimethyl-phenyl]propanoic acid]
DIO lowering (−30 to 90): −63%
